Among the data in patent US11077100B2, “Tetrahydroquinoline derivatives as P2X7 receptor antagonists” (RaQualia Pharma Inc., priority 2017, dated 2021) are IC50 values, retold here.

One test deals with human P2X7 (Homo sapiens (Human), UniProt Q99572). Put plainly: Human P2X7 functional assay (Ca2+ influx, Fluo-4, FDSS). It is filed as cell-based. As to conditions: antagonistic activity with respect to the human P2X7 receptor; BzATP final concentration 80 microM. In short, it runs like this:
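Ca2+ influx was triggered with BzATP (80 μM final) after a 10-min room-temperature compound preincubation and monitored with Fluo-4 (ex 480/em 540 nm) on FDSS. The cells were HEK293 stably carrying FLAG-tagged human P2X7. Duplicate-averaged 7-point dose-responses gave IC50s.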

The next test has as its target rat P2X7 (Rattus norvegicus (Rat), UniProt Q64663). Kind of test: Rat P2X7 functional assay (Ca2+ influx, Fluo-4, FDSS). It is filed as cell-based. As to conditions: HEK293 cells stably expressing rat P2X7; BzATP final 10 microM; 7-point dose-response; read-out: Antagonistic activities with respect to the rat P2X7 receptor (IC50). How it is done: Rat P2X7 Functional Assay
The functional activity of compounds was determined by measuring changes in intracellular calcium concentration using a Ca^2+-sensitive fluorescent dye, Fluo-4 (Molecular Probes). The changes in fluorescent signal were monitored by the cell imaging technology by Hamamatsu Photonics's Functional Drug Screening System (FDSS). Increases in intracellular Ca^2+ concentration were readily detected upon activation with BzATP.
HEK293 cells stably expressing rat P2X7 (GenBank accession number NM_019256) were grown in Corning CellBIND cell culture flasks, in a 5% CO2 humidified incubator to about 80% confluence. Media composition consisted of Dulbecco's Modified Eagle Medium (high glucose), 10% fetal bovine serum ([…]), 100 units/[…] Penicillin, 100 microg/mL Streptomycin and 250 microg/mL Geneticine.
1. […] Plate-out HEK293-rat P2X7 cells (40 microL medium containing 5,000 cells per well) into poly-D-lysine coated 384-well plates (BD Falcon) at 24 h prior to assay.
2. Incubate at 37° C. in 5% CO2.
3. Incubate the plate at 37° C. in 5% CO2 for 1 h.
5. Test compounds were prepared at 100× the test concentration in DMSO by serial dilution with Biomek-FX liquid handling instrument. 33× diluted compound solutions in assay buffer were prepared in intermediate compound plate with Biomek-NX liquid handling instrument. A further 3× dilution occurred in below steps 6 and 7.
6. Add 20 microL of 33× diluted compound solutions into each well and leave the plate for 10 min under the dark at room temperature.
7. Measure activity by FDSS as follows: • Set the assay plate on the stacker of FDSS. • Start the detection of fluorescence intensity at 540 nm by 480 nm exicitation. • After 30 seconds, add 20 microL of assay buffer containing 30 microM BzATP (final 10 microM).
IC50 values for compounds of the present invention were determined from 7-point dose-response studies. Curves were generated using the average of duplicate wells for each data point. Finally, the IC50 values are calculated with the best-fit dose curve determined by XLfit (ID Business Solutions Ltd.).

Where only a bound is given, the exact number is not on record here.

rat P2X7, sequence (Q64663 whole entry): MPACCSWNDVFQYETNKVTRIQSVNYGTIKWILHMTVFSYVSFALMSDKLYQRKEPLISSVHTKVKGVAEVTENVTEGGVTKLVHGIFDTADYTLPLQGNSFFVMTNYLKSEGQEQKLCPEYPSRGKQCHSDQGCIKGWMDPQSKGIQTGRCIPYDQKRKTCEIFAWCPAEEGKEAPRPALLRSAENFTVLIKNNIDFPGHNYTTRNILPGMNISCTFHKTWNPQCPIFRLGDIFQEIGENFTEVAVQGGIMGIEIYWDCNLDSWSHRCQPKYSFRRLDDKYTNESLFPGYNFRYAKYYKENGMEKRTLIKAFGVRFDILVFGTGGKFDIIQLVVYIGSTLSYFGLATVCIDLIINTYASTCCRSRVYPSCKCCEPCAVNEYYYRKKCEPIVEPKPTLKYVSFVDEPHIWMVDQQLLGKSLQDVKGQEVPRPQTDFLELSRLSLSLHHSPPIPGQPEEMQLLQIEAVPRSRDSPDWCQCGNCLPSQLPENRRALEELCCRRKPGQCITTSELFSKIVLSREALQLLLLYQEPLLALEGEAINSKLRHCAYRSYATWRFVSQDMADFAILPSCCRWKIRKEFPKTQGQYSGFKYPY
human P2X7, sequence (Q99572 whole entry): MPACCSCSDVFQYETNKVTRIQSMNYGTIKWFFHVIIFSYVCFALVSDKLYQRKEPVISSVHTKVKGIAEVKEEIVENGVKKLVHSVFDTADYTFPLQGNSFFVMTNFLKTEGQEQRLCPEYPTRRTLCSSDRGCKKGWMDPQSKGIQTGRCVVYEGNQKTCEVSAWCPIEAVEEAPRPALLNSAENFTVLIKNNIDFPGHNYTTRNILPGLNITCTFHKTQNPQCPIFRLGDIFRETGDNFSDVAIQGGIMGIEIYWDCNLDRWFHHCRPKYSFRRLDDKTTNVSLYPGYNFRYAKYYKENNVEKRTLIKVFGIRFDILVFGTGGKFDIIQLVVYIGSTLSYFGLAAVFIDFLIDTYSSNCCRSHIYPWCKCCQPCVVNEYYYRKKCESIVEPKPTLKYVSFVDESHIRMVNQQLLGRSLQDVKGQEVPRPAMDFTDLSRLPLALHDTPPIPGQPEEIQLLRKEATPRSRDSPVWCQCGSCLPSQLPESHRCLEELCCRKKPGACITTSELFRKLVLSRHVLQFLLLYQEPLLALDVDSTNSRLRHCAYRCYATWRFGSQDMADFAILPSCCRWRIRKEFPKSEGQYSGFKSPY

The IC50 is the concentration that inhibits the measured activity by half. On to `CO[C@H]1CC[C@](F)(C(=O)NCc2c(Cl)cc(Cl)cc2CO)c2cccnc21` [Example 333, (5R,8S)-N-(2,4-dichloro-6-(hydroxymethyl)benzyl)-5-fluoro-8-methoxy-5,6,7,8-tetrahydroquinoline-5-carboxamide], for which the IC50 is 0.101 to 0.3 µM on human P2X7 and below 1 µM at rat P2X7.

`O=C(NCc1ccc(Cl)cc1Cl)C1(F)CC(O)(CO)c2ncccc21` (stereo not shown) [Example 38, N-(2,4-dichlorobenzyl)-5-fluoro-7-hydroxy-7-(hydroxymethyl)-6,7-dihydro-5H-cyclopenta[b]pyridine-5-carboxamide]: the IC50 was 0.101 to 0.3 µM against human P2X7 and below 1 µM on rat P2X7.

For the compound `O=C(NCc1cccc(C(F)(F)F)c1Cl)C1(F)CCC(O)c2ncccc21` (stereo not shown) [Example 19, N-(2-chloro-3-(trifluoro-methyl)benzyl)-5-fluoro-8-hydroxy-5,6,7,8-tetrahydro-quinoline-5-carboxamide], the IC50 on human P2X7 is below 0.05 µM; at rat P2X7, below 1 µM.

For `O=C(NCc1ccc(F)cc1Cl)[C@]1(F)CC[C@@](O)(CSCCO)c2ncccc21` [Example 289, (5S,8S)-N-(2-chloro-4-fluorobenzyl)-5-fluoro-8-hydroxy-8-(((2-hydroxyethyl)thio)methyl)-5,6,7,8-tetrahydroquinoline-5-carboxamide], the IC50 against human P2X7 was below 0.05 µM; on rat P2X7, below 1 µM.

As to `C[C@@]1(O)CC[C@@](F)(C(=O)NCc2ccc(F)cc2Cl)c2cccnc21` [Example 260, (5S,8R)-N-(2-chloro-4-fluorobenzyl)-5-fluoro-8-hydroxy-8-methyl-5,6,7,8-tetrahydroquinoline-5-carboxamide], the figures for the concentration for half-maximal inhibition (IC50) against human P2X7 and at rat P2X7 were 0.301 to 1 µM and below 1 µM, respectively.

Turning to `O=C(NCc1ccc(Br)cc1Cl)[C@]1(F)CC[C@H](O)c2ncccc21` [Example 154, (5S,8S)-N-(4-bromo-2-chlorobenzyl)-5-fluoro-8-hydroxy-5,6,7,8-tetrahydroquinoline-5-carboxamide], the 50% inhibitory concentration (IC50) is below 0.05 µM on human P2X7 and below 1 µM at rat P2X7.

Regarding `O=C1CC[C@@](F)(C(=O)NCc2ccc(F)cc2Cl)c2cccnc21` [Example 249, (S)-N-(2-chloro-4-fluorobenzyl)-5-fluoro-8-oxo-5,6,7,8-tetra-hydroquinoline-5-carboxamide], the IC50 against human P2X7 was 0.05 to 0.1 µM; on rat P2X7 it was below 1 µM.

For `C[C@]1(O)CC[C@@](F)(C(=O)NCc2ncc(Cl)cc2Cl)c2cccnc21` [Example 272, (5S,8S)-N-((3,5-dichloropyridin-2-yl)methyl)-5-fluoro-8-hydroxy-8-methyl-5,6,7,8-tetrahydroquinoline-5-carboxamide], the values for the IC50 against human P2X7 and on rat P2X7 were below 0.05 µM and below 1 µM, respectively.

`O=C(NCc1cccc(Cl)c1F)[C@]1(F)CC[C@H](O)c2ncccc21` [Example 190, (5S,8S)-N-(3-chloro-2-fluorobenzyl)-5-fluoro-8-hydroxy-5,6,7,8-tetrahydroquinoline-5-carboxamide]: the IC50 on human P2X7 was below 0.05 µM; on rat P2X7, below 1 µM.

With `O=C(NCc1cccc(Cl)c1Cl)[C@]1(F)CC[C@@H](O)c2ncccc21` (stereo in doubt) [Example 121, (5S,8RS)-N-(2,3-dichlorobenzyl)-5-fluoro-8-hydroxy-5,6,7,8-tetrahydroquinoline-5-carboxamide], the IC50 at human P2X7 was 0.05 to 0.1 µM; on rat P2X7, below 1 µM.

In the case of `COCC1(O)CCC(F)(C(=O)NCc2cccc(C(F)(F)F)c2Cl)c2cccnc21` (stereo not shown) [Example 40, N-(2-chloro-3-(tri-fluoromethyl)benzyl)-5-fluoro-8-hydroxy-8-(methoxy-methyl)-5,6,7,8-tetra-hydroquinoline-5-carboxamide], the IC50 is below 0.05 µM on human P2X7 and below 1 µM at rat P2X7.

For the compound `O=C(NCc1ccc(F)cc1Cl)[C@]1(F)CC[C@@](O)(CNCCO)c2ncccc21` (relative stereo) [Example 56, (5S*,8R*)-N-(2-chloro-4-fluorobenzyl)-5-fluoro-8-hydroxy-8-(((2-hydroxy-ethyl)amino)methyl)-5,6,7,8-tetrahydro-quinoline-5-carboxamide], the IC50 against human P2X7 is below 0.05 µM; on rat P2X7, below 1 µM.

For the compound `O=C(NCc1ccc(Cl)cc1Cl)[C@@]1(F)CC[C@@H](O)c2ncccc21` [Example 132, (5R,8R)-N-(2,4-dichlorobenzyl)-5-fluoro-8-hydroxy-5,6,7,8-tetrahydroquinoline-5-carboxamide], the IC50 is below 0.05 µM against human P2X7 and below 1 µM at rat P2X7.

In the case of `O=C(NCc1cc(F)cc(F)c1)[C@]1(F)CC[C@H](O)c2ncccc21` [Example 221, (5S,8S)-N-(3,5-difluorobenzyl)-5-fluoro-8-hydroxy-5,6,7,8-tetrahydroquinoline-5-carboxamide], the half-inhibitory concentration (IC50) at human P2X7 was 0.301 to 1 µM; on rat P2X7, below 1 µM.

In the case of `CN(C)CC1(O)CCC(F)(C(=O)NCc2cccc(C(F)(F)F)c2Cl)c2cccnc21` (stereo not shown) [Example 50, N-(2-chloro-3-(trifluoro-methyl)benzyl)-8-((di-methylamino)methyl)-5-fluoro-8-hydroxy-5,6,7,8-tetrahydroquinoline-5-carboxamide], the IC50 against human P2X7 is below 0.05 µM; at rat P2X7 it was below 1 µM.

For `O=C(NCc1cccc(Cl)c1Cl)[C@@]1(F)CC[C@@H](O)c2ncccc21` [Example 158, (5R,8R)-N-(2,3-dichlorobenzyl)-5-fluoro-8-hydroxy-5,6,7,8-tetrahydroquinoline-5-carboxamide], the IC50 against human P2X7 is below 0.05 µM; on rat P2X7, below 1 µM.

As to `O=C(NCc1ccc(Cl)cc1Cl)[C@@H]1CC[C@H](O)c2ncccc21` [Example 66, (5R,8S)-N-(2,4-dichloro-benzyl)-8-hydroxy-5,6,7,8-tetrahydroquinoline-5-carboxamide], the values for the IC50 against human P2X7 and at rat P2X7 were below 0.05 µM and below 1 µM, respectively.

As to `Cc1cc(Cl)cc(Cl)c1CNC(=O)C1(O)CCC(O)c2ncccc21` (stereo not shown) [Example 24, N-(2,4-dichloro-6-methyl-benzyl)-5,8-dihydroxy-5,6,7,8-tetrahydroquinoline-5-carboxamide], the IC50 against human P2X7 was below 0.05 µM; on rat P2X7, below 1 µM.

As for `O=C(NCc1c(Cl)cc(Cl)cc1CO)C1(F)CCC(O)c2ncccc21` (stereo not shown) [Example 20, N-(2,4-dichloro-6-(hydroxymethyl)benzyl)-5-fluoro-8-hydroxy-5,6,7,8-tetrahydro quinoline-5-carboxamide], the IC50 against human P2X7 was below 0.05 µM; at rat P2X7, below 1 µM.

In the case of `CN(CCO)C[C@]1(O)CC[C@@](F)(C(=O)NCc2ccc(Cl)cc2Cl)c2cccnc21` [Example 277, (5S,8R)-N-(2,4-dichlorobenzyl)-5-fluoro-8-hydroxy-8-(((2-hydroxyethyl) (methyl)amino)methyl)-5,6,7,8-tetrahydroquinoline-5-carboxamide], the IC50 at human P2X7 is below 0.05 µM; on rat P2X7, below 1 µM.

With `O=C(NCc1ccc(F)c(F)c1Cl)[C@]1(F)CC[C@H](O)c2ncccc21` [Example 174, (5S,8S)-N-(2-chloro-3,4-difluorobenzyl)-5-fluoro-8-hydroxy-5,6,7,8-tetrahydroquinoline-5-carboxamide], the half-inhibitory concentration (IC50) on rat P2X7 is below 1 µM.

As for `C[C@]1(O)CC[C@@](F)(C(=O)NCc2c(F)cc(F)cc2Cl)c2cccnc21` [Example 266, (5S,8S)-N-(2-chloro-4,6-difluorobenzyl)-5-fluoro-8-hydroxy-8-methyl-5,6,7,8-tetrahydroquinoline-5-carboxamide], the IC50 at rat P2X7 is below 1 µM.

For the compound `C[C@]1(O)CC[C@@](F)(C(=O)NCc2c(F)cc(Cl)cc2Cl)c2cccnc21` [Example 265, (5S,8S)-N-(2,4-dichloro-6-fluorobenzyl)-5-fluoro-8-hydroxy-8-methyl-5,6,7,8-tetrahydroquinoline-5-carboxamide], at rat P2X7, the IC50 was below 1 µM.

With `CS(=O)(=O)C1CC[C@@](F)(C(=O)NCc2ccc(Cl)cc2Cl)c2cccnc21` (stereo partly shown) [Example 350], the IC50 on rat P2X7 is below 1 µM.

Take `NC(=O)CC1CCC(C(=O)NCc2cccc(C(F)(F)F)c2Cl)c2cccnc21` (stereo not shown) [Example 32, (2-amino-2-oxoethyl)-N-(2-chloro-3-(trifluoro-methyl)benzyl)-5,6,7,8-tetra-hydroquinoline-5-carboxamide]: the IC50 at rat P2X7 was below 1 µM.

For the compound `Cc1cccc(Cl)c1CNC(=O)[C@]1(F)CC[C@H](O)c2ncccc21` [Example 161, (5S,8S)-N-(2-chloro-6-methylbenzyl)-5-fluoro-8-hydroxy-5,6,7,8-tetrahydroquinoline-5-carboxamide], the IC50 at rat P2X7 was below 1 µM.
